Measurements taken from ChEMBL document CHEMBL3045481, “Insecticide-induced resurgence of the whitebacked planthopper Sogatella furcifera (Horvath) (Hemiptera: Delphacidae) on rice varieties with different levels of resistance” (Crop Prot, 2011).

Experiments:
Format in all cases: ADME, organism-based
Conditions in all cases: in vivo
Oryza sativa [1] = test: Effect on total sugar level in Sogatella furcifera-sensitive Oryza sativa (rice) plant ARC6248 leaf sheath measured per gram of dry weight at 0.0035% concentration (reference value: 25.98 mg/g dry wt)
Oryza sativa [2] = test: Effect on reducing sugar level in Sogatella furcifera-sensitive Oryza sativa (rice) plant ARC6248 leaf blade measured per gram of dry weight at 0.0035% concentration (reference value: 8.37 mg/g dry wt)
Oryza sativa [3] = test: Effect on total amino acids level in Sogatella furcifera-sensitive Oryza sativa (rice) plant ARC6248 leaf sheath measured per gram of dry weight at 0.0018% concentration (reference value: 2.11 mg/g fresh wt)
Oryza sativa [4] = test: Effect on total protein level in Sogatella furcifera-resistanct Oryza sativa (rice) plant PR116 leaf sheath measured per gram of dry weight at 0.0018% concentration (reference value: 7.06 mg/g fresh wt)
Oryza sativa [5] = test: Effect on total sugar level in Sogatella furcifera-sensitive Oryza sativa (rice) plant ARC6248 leaf blade measured per gram of dry weight at 0.0035% concentration (reference value: 34.05 mg/g dry wt)
Oryza sativa [6] = test: Effect on reducing sugar level in Sogatella furcifera-resistanct Oryza sativa (rice) plant PR116 leaf sheath measured per gram of dry weight at 0.0018% concentration (reference value: 7.50 mg/g dry wt)
Oryza sativa [7] = test: Effect on total amino acids level in Sogatella furcifera-resistanct Oryza sativa (rice) plant PR116 leaf sheath measured per gram of dry weight at 0.0018% concentration (reference value: 2.58 mg/g […])
Oryza sativa [8] = test: Effect on total phenols level in Sogatella furcifera-sensitive Oryza sativa (rice) plant ARC6248 leaf sheath measured per gram of dry weight at 0.0035% concentration (reference value: 12.75 mg/g dry wt)
Oryza sativa [9] = test: Effect on total amino acids level in Sogatella furcifera-resistanct Oryza sativa (rice) plant PR116 leaf sheath measured per gram of dry weight at 0.0035% concentration (reference value: 2.58 mg/g […])
Oryza sativa [10] = test: Effect on reducing sugar level in Sogatella furcifera-resistanct Oryza sativa (rice) plant PR116 leaf sheath measured per gram of dry weight at 0.0035% concentration (reference value: 7.50 mg/g dry wt)
Oryza sativa [11] = test: Effect on total sugar level in Sogatella furcifera-resistanct Oryza sativa (rice) plant PR116 leaf blade measured per gram of dry weight at 0.0018% concentration (reference value: 36.16 mg/g dry wt)
Oryza sativa [12] = test: Effect on total protein level in Sogatella furcifera-sensitive Oryza sativa (rice) plant ARC6248 leaf sheath measured per gram of dry weight at 0.0035% concentration (reference value: 6.11 mg/g […])
Oryza sativa [13] = test: Effect on total sugar level in Sogatella furcifera-resistanct Oryza sativa (rice) plant PR116 leaf blade measured per gram of dry weight at 0.0035% concentration (reference value: 36.16 mg/g dry wt)
Oryza sativa [14] = test: Effect on total amino acids level in Sogatella furcifera-sensitive Oryza sativa (rice) plant ARC6248 leaf blade measured per gram of dry weight at 0.0035% concentration (reference value: 3.54 mg/g fresh wt)
Oryza sativa [15] = test: Effect on total amino acids level in Sogatella furcifera-resistanct Oryza sativa (rice) plant PR116 leaf blade measured per gram of dry weight at 0.0035% concentration (reference value: 3.91 mg/g […])
Oryza sativa [16] = test: Effect on total phenols level in Sogatella furcifera-resistanct Oryza sativa (rice) plant PR116 leaf blade measured per gram of dry weight at 0.0035% concentration (reference value: 8.08 mg/g dry wt)
Oryza sativa [17] = test: Effect on total sugar level in Sogatella furcifera-resistanct Oryza sativa (rice) plant PR116 leaf sheath measured per gram of dry weight at 0.0035% concentration (reference value: 30.27 mg/g dry wt)
Oryza sativa [18] = test: Effect on total amino acids level in Sogatella furcifera-resistanct Oryza sativa (rice) plant PR116 leaf blade measured per gram of dry weight at 0.0018% concentration (reference value: 3.91 mg/g […])
Oryza sativa [19] = test: Effect on total phenols level in Sogatella furcifera-resistanct Oryza sativa (rice) plant PR116 leaf blade measured per gram of dry weight at 0.0018% concentration (reference value: 8.08 mg/g dry wt)
Oryza sativa [20] = test: Effect on total protein level in Sogatella furcifera-resistanct Oryza sativa (rice) plant PR116 leaf sheath measured per gram of dry weight at 0.0035% concentration (reference value: 7.06 mg/g fresh wt)
Oryza sativa [21] = test: Effect on total protein level in Sogatella furcifera-sensitive Oryza sativa (rice) plant ARC6248 leaf blade measured per gram of dry weight at 0.0035% concentration (reference value: 17.67 mg/g fresh wt)
Oryza sativa [22] = test: Effect on total phenols level in Sogatella furcifera-sensitive Oryza sativa (rice) plant ARC6248 leaf sheath measured per gram of dry weight at 0.0018% concentration (reference value: 12.75 mg/g dry wt)
Oryza sativa [23] = test: Effect on total phenols level in Sogatella furcifera-sensitive Oryza sativa (rice) plant ARC6248 leaf blade measured per gram of dry weight at 0.0018% concentration (reference value: 17.08 mg/g dry wt)
Oryza sativa [24] = test: Effect on total sugar level in Sogatella furcifera-sensitive Oryza sativa (rice) plant ARC6248 leaf blade measured per gram of dry weight at 0.0018% concentration (reference value: 34.05 mg/g dry wt)
Oryza sativa [25] = test: Effect on total protein level in Sogatella furcifera-resistanct Oryza sativa (rice) plant PR116 leaf blade measured per gram of dry weight at 0.0035% concentration (reference value: 21.67 mg/g fresh wt)
Oryza sativa [26] = test: Effect on reducing sugar level in Sogatella furcifera-resistanct Oryza sativa (rice) plant PR116 leaf blade measured per gram of dry weight at 0.0035% concentration (reference value: 9.35 mg/g dry wt)
Oryza sativa [27] = test: Effect on total amino acids level in Sogatella furcifera-sensitive Oryza sativa (rice) plant ARC6248 leaf blade measured per gram of dry weight at 0.0018% concentration (reference value: 3.54 mg/g fresh wt)
Oryza sativa [28] = test: Effect on total phenols level in Sogatella furcifera-resistanct Oryza sativa (rice) plant PR116 leaf sheath measured per gram of dry weight at 0.0035% concentration (reference value: 5.75 mg/g dry wt)
Oryza sativa [29] = test: Effect on reducing sugar level in Sogatella furcifera-resistanct Oryza sativa (rice) plant PR116 leaf blade measured per gram of dry weight at 0.0018% concentration (reference value: 9.35 mg/g dry wt)
Oryza sativa [30] = test: Effect on total amino acids level in Sogatella furcifera-sensitive Oryza sativa (rice) plant ARC6248 leaf sheath measured per gram of dry weight at 0.0035% concentration (reference value: 2.11 mg/g fresh wt)
Oryza sativa [31] = test: Effect on total sugar level in Sogatella furcifera-resistanct Oryza sativa (rice) plant PR116 leaf sheath measured per gram of dry weight at 0.0018% concentration (reference value: 30.27 mg/g dry wt)
Oryza sativa [32] = test: Effect on total phenols level in Sogatella furcifera-resistanct Oryza sativa (rice) plant PR116 leaf sheath measured per gram of dry weight at 0.0018% concentration (reference value: 5.75 mg/g dry wt)
Oryza sativa [33] = test: Effect on total protein level in Sogatella furcifera-sensitive Oryza sativa (rice) plant ARC6248 leaf sheath measured per gram of dry weight at 0.0018% concentration (reference value: 6.11 mg/g […])
Oryza sativa [34] = test: Effect on total protein level in Sogatella furcifera-sensitive Oryza sativa (rice) plant ARC6248 leaf blade measured per gram of dry weight at 0.0018% concentration (reference value: 17.67 mg/g fresh wt)
Oryza sativa [35] = test: Effect on total phenols level in Sogatella furcifera-sensitive Oryza sativa (rice) plant ARC6248 leaf blade measured per gram of dry weight at 0.0035% concentration (reference value: 17.08 mg/g dry wt)
Oryza sativa [36] = test: Effect on reducing sugar level in Sogatella furcifera-sensitive Oryza sativa (rice) plant ARC6248 leaf sheath measured per gram of dry weight at 0.0018% concentration (reference value: 6.41 mg/g dry wt)
Oryza sativa [37] = test: Effect on total protein level in Sogatella furcifera-resistanct Oryza sativa (rice) plant PR116 leaf blade measured per gram of dry weight at 0.0018% concentration (reference value: 21.67 mg/g fresh wt)
Oryza sativa [38] = test: Effect on total sugar level in Sogatella furcifera-sensitive Oryza sativa (rice) plant ARC6248 leaf sheath measured per gram of dry weight at 0.0018% concentration (reference value: 25.98 mg/g dry wt)
Oryza sativa [39] = test: Effect on reducing sugar level in Sogatella furcifera-sensitive Oryza sativa (rice) plant ARC6248 leaf blade measured per gram of dry weight at 0.0018% concentration (reference value: 8.37 mg/g dry wt)
Oryza sativa [40] = test: Effect on reducing sugar level in Sogatella furcifera-sensitive Oryza sativa (rice) plant ARC6248 leaf sheath measured per gram of dry weight at 0.0035% concentration (reference value: 6.41 mg/g dry wt)

O=[N+]([O-])NC1=NCCN1Cc1ccc(Cl)nc1 [IMIDACLOPRID] was tested, and the Activity (Oryza sativa [1]) was 30.27 mg, the Activity (Oryza sativa [2]) was 8.8 mg and the Activity (Oryza sativa [3]) was 2.02 mg. For the same compound, the Activity (Oryza sativa [4]) was 6.06 mg, the Activity (Oryza sativa [5]) was 37 mg and the Activity (Oryza sativa [6]) was 8.8 mg. It also gave an Activity (Oryza sativa [7]) of 2.4 mg, an Activity (Oryza sativa [8]) of 14.08 mg and an Activity (Oryza sativa [9]) of 2.68 mg. The Activity (Oryza sativa [10]) was 8.81 mg, the Activity (Oryza sativa [11]) was 40.98 mg and the Activity (Oryza sativa [12]) was 5.56 mg. The Activity (Oryza sativa [13]) was 39.91 mg, the Activity (Oryza sativa [14]) was 3.73 mg and the Activity (Oryza sativa [15]) was 4.27 mg. For the same compound, the Activity (Oryza sativa [16]) was 8 mg, the Activity (Oryza sativa [17]) was 32.41 mg and the Activity (Oryza sativa [18]) was 3.73 mg. The Activity (Oryza sativa [19]) was 8.08 mg, the Activity (Oryza sativa [20]) was 6.67 mg and the Activity (Oryza sativa [21]) was 17.78 mg. It also gave an Activity (Oryza sativa [22]) of 14.75 mg, an Activity (Oryza sativa [23]) of 17.67 mg and an Activity (Oryza sativa [24]) of 40.45 mg. It also gave an Activity (Oryza sativa [25]) of 21.11 mg, an Activity (Oryza sativa [26]) of 11.85 mg and an Activity (Oryza sativa [27]) of 3.21 mg. For the same compound, the Activity (Oryza sativa [28]) was 6.67 mg, the Activity (Oryza sativa [29]) was 12.72 mg and the Activity (Oryza sativa [30]) was 2.48 mg. The Activity (Oryza sativa [31]) was 31.34 mg, the Activity (Oryza sativa [32]) was 6.17 mg and the Activity (Oryza sativa [33]) was 5.56 mg. It also gave an Activity (Oryza sativa [34]) of 15.11 mg, an Activity (Oryza sativa [35]) of 18 mg and an Activity (Oryza sativa [36]) of 7.28 mg. For the same compound, the Activity (Oryza sativa [37]) was 18.89 mg, the Activity (Oryza sativa [38]) was 34.55 mg and the Activity (Oryza sativa [39]) was 9.67 mg. For the same compound, the Activity (Oryza sativa [40]) was 6.63 mg.
